Our source for the IC50 values is patent US20260028336A1 (Arcus Biosciences, Inc., priority 2022, published 2026).

Each structure is given as a SMILES string.

In the assay the target is T1, Cbl-b (Homo sapiens, UniProt Q13191).
T1 construct: biotin (biotinylated)
T1 sequence (Q13191 whole entry, species assumed): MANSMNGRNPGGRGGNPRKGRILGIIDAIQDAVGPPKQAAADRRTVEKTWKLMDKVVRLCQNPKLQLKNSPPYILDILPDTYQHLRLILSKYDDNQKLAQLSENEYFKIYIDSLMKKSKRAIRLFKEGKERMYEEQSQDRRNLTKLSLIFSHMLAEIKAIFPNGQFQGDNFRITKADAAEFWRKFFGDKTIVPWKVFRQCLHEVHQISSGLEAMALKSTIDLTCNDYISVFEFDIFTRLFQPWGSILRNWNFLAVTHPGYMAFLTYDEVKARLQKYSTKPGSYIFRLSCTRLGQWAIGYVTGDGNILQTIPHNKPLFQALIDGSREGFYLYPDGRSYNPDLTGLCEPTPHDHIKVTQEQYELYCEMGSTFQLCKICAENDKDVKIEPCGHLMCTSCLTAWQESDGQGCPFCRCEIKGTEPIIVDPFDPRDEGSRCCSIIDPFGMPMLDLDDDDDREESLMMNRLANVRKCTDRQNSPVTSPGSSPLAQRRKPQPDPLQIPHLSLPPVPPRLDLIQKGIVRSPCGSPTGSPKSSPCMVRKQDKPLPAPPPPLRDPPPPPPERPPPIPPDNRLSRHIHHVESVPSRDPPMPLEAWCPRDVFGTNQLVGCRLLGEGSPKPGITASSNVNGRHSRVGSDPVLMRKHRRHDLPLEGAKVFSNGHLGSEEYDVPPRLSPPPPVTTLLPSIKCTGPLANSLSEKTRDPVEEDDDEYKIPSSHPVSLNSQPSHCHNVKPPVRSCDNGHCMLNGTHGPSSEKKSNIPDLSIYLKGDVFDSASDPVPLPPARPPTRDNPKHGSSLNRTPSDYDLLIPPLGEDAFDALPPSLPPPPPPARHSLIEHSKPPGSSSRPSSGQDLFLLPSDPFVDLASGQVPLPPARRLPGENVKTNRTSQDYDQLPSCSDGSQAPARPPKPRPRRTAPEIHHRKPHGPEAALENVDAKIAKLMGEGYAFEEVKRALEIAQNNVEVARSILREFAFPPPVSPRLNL
Description: Cbl-b probe displacement HTRF binding assay. Conditions: 0.4 nM biotinylated Cbl-b, 150 nM BODIPY probe. On the procedure: The affinity with which compounds of the present dislcosure bind to Cbl-b was assessed using probe displacement homologous time resolved fluorescence (HTRF) assays. […] The assays were performed in assay buffer consisting of 20 mM Hepes, 150 mM NaCl, 0.01% Triton X-100, 0.5 mM TCEP, 0.01% BSA. On the day of the assay, a 20 point, 1:2 master serial dilution of each compound was prepared in DMSO to span a final concentration range of […] to 0 nM. Two hundred nanoliters of diluted compound was added to each well of a 384-well plate. Fifteen microliters of biotinylated-Cbl-b resuspended in assay buffer were added to each well and the plate incubated for 60 minutes at room temperature prior to addition of 5 μL of BODIPY™ probe in assay buffer. […] After a further 15 minutes of incubation at room temperature, 5 μl of Streptavidin-Terbium cryptate reagent at 5-fold final concentration was added to each well of the 384-well plate. Binding of a probe to Cbl-b results in an increase of HTRF signal. […] Percentage maximum activity in each test well was calculated based on DMSO (maximum activity, 0% displacement) and no protein control wells (baseline activity, 100% displacement). Binding affinity was determined from a dose response curve fitted using a standard four parameter fit equation.
In general terms: Time-resolved FRET reads energy transfer from a long-lived donor to a nearby acceptor.
Molecule `CC(=O)c1c[nH]c2c(=O)n(-c3cccc([C@]4(c5nncn5C)C[C@H](C)C4)c3)cc(C3CC3)c12` (single isomer, unassigned) [Example 22, 3-Acetyl-4-cyclopropyl-6-{3-[(1s,3r)-3-methyl-1-(4-methyl-4H-1,2,4-triazol-3-yl)cyclobutyl]phenyl}-1H,6H,7H-pyrrolo[2,3-c]pyridin-7-one] showed an IC50 of less than 100 nM. Then `CC(O)c1c[nH]c2c(=O)n(-c3cccc([C@]4(c5nncn5C)C[C@@H](C)C4)c3)cc(C3CC3)c12` (single isomer, unassigned) [Example 23], with 100 to 1000 nM; and `CC(O)c1c[nH]c2c(=O)n(-c3cccc([C@]4(c5nncn5C)C[C@H](C)C4)c3)cc(C3CC3)c12` (single isomer, unassigned) [Example 24], with 100 to 1000 nM; and `Cn1cnnc1[C@]1(c2cccc(-n3cc(C4CC4)c4c(S(C)(=O)=O)c[nH]c4c3=O)c2)C[C@H](C)C1` (single isomer, unassigned) [Example 25, 4-Cyclopropyl-3-methanesulfonyl-6-{3-[(1r,3s)-3-methyl-1-(4-methyl-4H-1,2,4-triazol-3-yl)cyclobutyl]phenyl}-1H,6H,7H-pyrrolo[2,3-c]pyridin-7-one], with 100 to 1000 nM.

In the case of `Cn1cnnc1[C@]1(c2cccc(-n3cc(C4CC4)c4c(S(C)(=O)=O)c[nH]c4c3=O)c2)C[C@@H](C)C1` (single isomer, unassigned) [Example 26, 4-Cyclopropyl-3-methanesulfonyl-6-{3-[(1s,3r)-3-methyl-1-(4-methyl-4H-1,2,4-triazol-3-yl)cyclobutyl]phenyl}-1H,6H,7H-pyrrolo[2,3-c]pyridin-7-one], the half-inhibitory concentration (IC50) fell in the range of 100 to 1000 nM. Then `Cn1cnnc1[C@]1(c2cccc(-n3ccc4c(C#N)c[nH]c4c3=O)c2)C[C@H](C)C1` (single isomer, unassigned) [Example 27, 7-Oxo-6-{3-[(1r,3s)-3-methyl-1-(4-methyl-4H-1,2,4-triazol-3-yl)cyclobutyl]phenyl}-1H,6H,7H-pyrrolo[2,3-c]pyridine-3-carbonitrile], with 100 to 1000 nM; and `Cn1cnnc1[C@]1(c2cccc(-n3ccc4c(C#N)c[nH]c4c3=O)c2)C[C@@H](C)C1` (single isomer, unassigned) [Example 28, 7-Oxo-6-{3-[(1s,3r)-3-methyl-1-(4-methyl-4H-1,2,4-triazol-3-yl)cyclobutyl]phenyl}-1H,6H,7H-pyrrolo[2,3-c]pyridine-3-carbonitrile], with 100 to 1000 nM; and `Cn1cnnc1[C@]1(c2cccc(-n3ccc4cc[nH]c4c3=O)c2)C[C@H](C)C1` (single isomer, unassigned) [Example 30, 6-{3-[(1r,3s)-3-methyl-1-(4-methyl-4H-1,2,4-triazol-3-yl)cyclobutyl]phenyl}-1H,6H,7H-pyrrolo[2,3-c]pyridin-7-one], with 1000 to 5000 nM. The molecule `Cn1cnnc1[C@]1(c2cccc(-n3ccc4cc[nH]c4c3=O)c2)C[C@@H](C)C1` (single isomer, unassigned) [Example 31, 6-{3-[(1s,3r)-3-methyl-1-(4-methyl-4H-1,2,4-triazol-3-yl)cyclobutyl]phenyl}-1H,6H,7H-pyrrolo[2,3-c]pyridin-7-one] registered an IC50 of 1000 to 5000 nM. Then `Cn1cncc1-c1c[nH]c2c(=O)n(-c3cccc([C@]4(c5nncn5C)C[C@H](C)C4)c3)cc(C3CC3)c12` (single isomer, unassigned) [Example 35], with less than 100 nM; and `CC(Sc1nncn1C)c1cccc(-n2cc(C3CC3)c3cc(CN4CCC[C@H](C)C4)[nH]c3c2=O)c1` (stereo partly drawn) [Example 2, 4-cyclopropyl-2-[[(3S)-3-methylpiperidin-1-yl]methyl]-6-[3-[1-[(4-methyl-1,2,4-triazol-3-yl)sulfanyl]ethyl]phenyl]-1H-pyrrolo[2,3-c]pyridin-7-one], with 100 to 1000 nM.

The IC50 is the point on the concentration scale where inhibition reaches its midpoint. A higher IC50 goes with a need for much substance.
